{"source": "PubChem BioAssay AID256", "about": "(DTP/NCI, 2004)", "test_system": "CD2F1 mice, L1210 leukemia ip, survival T/C", "assay": "NCI In Vivo Anticancer Drug Screen. Data for tumor model L1210 Leukemia (intraperitoneal) in CD2F1 (CDF1) mice", "settings": "endpoint: mean survival time, higher = longer survival", "how_it_was_run": "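Read-out first: treated-group measurement over vehicle-control measurement, expressed as a ratio. Animals bore a transplanted tumor line and were dosed with compound or vehicle.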", "key": {"[1]": {"settings": "dose: 25.0 mg/kg/injection, schedule: Q04DX002 (ip), vehicle: saline with Tween-80"}, "[2]": {"settings": "dose: 50.0 mg/kg/injection, schedule: Q01DX009 (ip), vehicle: saline"}, "[3]": {"settings": "dose: 50.0 mg/kg/injection, schedule: Q01DX009 (ip), vehicle: saline with Tween-80"}, "[4]": {"settings": "dose: 100.0 mg/kg/injection, schedule: Q01DX009 (ip), vehicle: saline with Tween-80"}, "[5]": {"settings": "dose: 100.0 mg/kg/injection, schedule: Q04DX003 (ip), vehicle: saline with Tween-80"}, "[6]": {"settings": "dose: 200.0 mg/kg/injection, schedule: Q01DX009 (ip), vehicle: saline with Tween-80"}, "[7]": {"settings": "dose: 200.0 mg/kg/injection, schedule: Q04DX003 (ip), vehicle: saline with Tween-80"}, "[8]": {"settings": "dose: 400.0 mg/kg/injection, schedule: Q04DX003 (ip), vehicle: saline with Tween-80"}}, "note": "Several values for one entry are separate records, joined by “and”; a condition that tells them apart may be missing. Identical values can stand only once. Toxic doses and inconclusive results are not listed.", "data": [{"smiles": "CC(C)(C)CC(C)(C)c1ccc(Oc2ccc([N+](=O)[O-])cc2S(=O)(=O)O)cc1", "values": [{"measurement": "T/C", "setting": "dose: 6.25 mg/kg/injection, schedule: Q04DX002 (ip), vehicle: saline with Tween-80", "value": "96 % of control"}, {"measurement": "T/C", "setting": "dose: 12.5 mg/kg/injection, schedule: Q04DX002 (ip), vehicle: saline with Tween-80", "value": "114 % of control"}, {"measurement": "T/C", "setting": "[1]", "value": "87 % of control and 93 % of control"}]}, {"smiles": "NC(=S)/C(N)=N/Nc1ccc(Cl)cc1", "values": [{"measurement": "T/C", "setting": "dose: 0.39 mg/kg/injection, schedule: Q01DX009 (ip), vehicle: saline", "value": "101 % of control"}, {"measurement": "T/C", "setting": "dose: 0.78 mg/kg/injection, schedule: Q01DX009 (ip), vehicle: saline", "value": "104 % of control"}, {"measurement": "T/C", "setting": "dose: 1.56 mg/kg/injection, schedule: Q01DX009 (ip), vehicle: saline", "value": "108 % of control"}, {"measurement": "T/C", "setting": "dose: 3.12 mg/kg/injection, schedule: Q01DX009 (ip), vehicle: saline", "value": "107 % of control"}, {"measurement": "T/C", "setting": "dose: 6.25 mg/kg/injection, schedule: Q01DX009 (ip), vehicle: saline", "value": "96 % of control and 110 % of control"}, {"measurement": "T/C", "setting": "dose: 12.5 mg/kg/injection, schedule: Q01DX009 (ip), vehicle: saline", "value": "113 % of control and 93 % of control"}, {"measurement": "T/C", "setting": "dose: 25.0 mg/kg/injection, schedule: Q01DX009 (ip), vehicle: saline", "value": "100 % of control"}, {"measurement": "T/C", "setting": "[2]", "value": "100 % of control"}]}, {"smiles": "CC(=O)c1cc2c(cc1C(C)C)CC[C@H]1[C@](C)(C#N)CCC[C@]21C", "values": [{"measurement": "T/C", "setting": "dose: 25.0 mg/kg/injection, schedule: Q01DX009 (ip), vehicle: saline with Tween-80", "value": "104 % of control"}, {"measurement": "T/C", "setting": "[3]", "value": "90 % of control"}, {"measurement": "T/C", "setting": "[4]", "value": "98 % of control"}, {"measurement": "T/C", "setting": "[5]", "value": "87 % of control"}]}, {"smiles": "COc1ccc(/C=N/NC(=S)Nc2ccccn2)cc1OC", "values": [{"measurement": "T/C", "setting": "[1]", "value": "92 % of control"}, {"measurement": "T/C", "setting": "dose: 50.0 mg/kg/injection, schedule: Q04DX002 (ip), vehicle: saline with Tween-80", "value": "92 % of control"}, {"measurement": "T/C", "setting": "dose: 100.0 mg/kg/injection, schedule: Q04DX002 (ip), vehicle: saline with Tween-80", "value": "88 % of control and 95 % of control"}]}, {"smiles": "OCCC1CC1=C1CC1", "note": "(centres undefined)", "values": [{"measurement": "T/C", "setting": "dose: 100.0 mg/kg/injection, schedule: Q04DX003 (ip), vehicle: Klucel (hydroxypropylcellulose) (HPC)", "value": "101 % of control"}, {"measurement": "T/C", "setting": "dose: 200.0 mg/kg/injection, schedule: Q04DX003 (ip), vehicle: Klucel (hydroxypropylcellulose) (HPC)", "value": "101 % of control"}]}, {"smiles": "CC(N)(CCC(=O)O)C(=O)O", "note": "(centres undefined)", "values": [{"measurement": "T/C", "setting": "[4]", "value": "96 % of control"}, {"measurement": "T/C", "setting": "[6]", "value": "101 % of control"}]}, {"smiles": "CCOC(=O)C(S(C)(=O)=O)S(C)(=O)=O", "values": [{"measurement": "T/C", "setting": "dose: 75.0 mg/kg/injection, schedule: Q01DX001 (ip), vehicle: saline with Tween-80", "value": "97 % of control"}, {"measurement": "T/C", "setting": "dose: 150.0 mg/kg/injection, schedule: Q01DX001 (ip), vehicle: saline with Tween-80", "value": "108 % of control"}, {"measurement": "T/C", "setting": "dose: 300.0 mg/kg/injection, schedule: Q01DX001 (ip), vehicle: saline with Tween-80", "value": "98 % of control"}]}, {"smiles": "c1cc(Oc2ccc3ccncc3c2)c2ccncc2c1", "values": [{"measurement": "T/C", "setting": "[5]", "value": "95 % of control"}, {"measurement": "T/C", "setting": "[7]", "value": "100 % of control"}, {"measurement": "T/C", "setting": "[8]", "value": "101 % of control"}]}, {"smiles": "c1ccc2c(c1)CC1Sc3ccccc3N=C21", "note": "(centres undefined)", "values": [{"measurement": "T/C", "setting": "[3]", "value": "91 % of control"}, {"measurement": "T/C", "setting": "[4]", "value": "91 % of control"}, {"measurement": "T/C", "setting": "[6]", "value": "94 % of control"}]}, {"smiles": "CCN(CC)c1nc(Cl)nc(NC(C)C)n1", "values": [{"measurement": "T/C", "setting": "[4]", "value": "100 % of control"}, {"measurement": "T/C", "setting": "dose: 100.0 mg/kg/injection, schedule: Q04DX003 (ip), vehicle: saline", "value": "103 % of control"}, {"measurement": "T/C", "setting": "[6]", "value": "101 % of control"}, {"measurement": "T/C", "setting": "dose: 200.0 mg/kg/injection, schedule: Q04DX003 (ip), vehicle: saline", "value": "100 % of control"}, {"measurement": "T/C", "setting": "dose: 400.0 mg/kg/injection, schedule: Q01DX009 (ip), vehicle: saline with Tween-80", "value": "94 % of control"}, {"measurement": "T/C", "setting": "dose: 400.0 mg/kg/injection, schedule: Q04DX003 (ip), vehicle: saline", "value": "103 % of control"}]}, {"smiles": "Cc1cc(=O)c2ccccc2n1C", "values": [{"measurement": "T/C", "setting": "dose: 5.0 mg/kg/injection, schedule: Q04DX002 (ip), vehicle: saline", "value": "98 % of control"}, {"measurement": "T/C", "setting": "dose: 10.0 mg/kg/injection, schedule: Q04DX002 (ip), vehicle: saline", "value": "98 % of control"}, {"measurement": "T/C", "setting": "dose: 20.0 mg/kg/injection, schedule: Q04DX002 (ip), vehicle: saline", "value": "98 % of control"}]}, {"smiles": "COC(=O)/C(C#N)=C(\\C)CC(C)C", "values": [{"measurement": "T/C", "setting": "dose: 75.0 mg/kg/injection, schedule: Q01DX001 (ip), vehicle: saline", "value": "100 % of control"}, {"measurement": "T/C", "setting": "dose: 150.0 mg/kg/injection, schedule: Q01DX001 (ip), vehicle: saline", "value": "94 % of control"}]}, {"smiles": "COc1ccc(CCCC(=O)O)cc1", "values": [{"measurement": "T/C", "setting": "dose: 100.0 mg/kg/injection, schedule: Q01DX001 (ip), vehicle: saline with Tween-80", "value": "94 % of control"}, {"measurement": "T/C", "setting": "dose: 200.0 mg/kg/injection, schedule: Q01DX001 (ip), vehicle: saline with Tween-80", "value": "92 % of control"}, {"measurement": "T/C", "setting": "dose: 400.0 mg/kg/injection, schedule: Q01DX001 (ip), vehicle: saline with Tween-80", "value": "94 % of control"}]}, {"smiles": "ClCc1ccc(CCl)c(Cl)c1Cl", "values": [{"measurement": "T/C", "setting": "[5]", "value": "96 % of control"}]}, {"smiles": "NSc1ccc([N+](=O)[O-])cc1", "values": [{"measurement": "T/C", "setting": "dose: 25.0 mg/kg/injection, schedule: Q01DX001 (ip), vehicle: other", "value": "270 % of control"}, {"measurement": "T/C", "setting": "dose: 50.0 mg/kg/injection, schedule: Q01DX001 (ip), vehicle: other", "value": "204 % of control"}]}, {"smiles": "NC(CCC(=O)NCc1ccc(S(=O)(=O)F)cc1)C(=O)O", "note": "(centres undefined)", "values": [{"measurement": "T/C", "setting": "[2]", "value": "92 % of control"}, {"measurement": "T/C", "setting": "dose: 100.0 mg/kg/injection, schedule: Q01DX009 (ip), vehicle: saline", "value": "96 % of control"}, {"measurement": "T/C", "setting": "dose: 200.0 mg/kg/injection, schedule: Q01DX009 (ip), vehicle: saline", "value": "92 % of control"}]}, {"smiles": "O=S1(=O)CC(O)C(Br)C1", "note": "(centres undefined)", "values": [{"measurement": "T/C", "setting": "[5]", "value": "103 % of control"}, {"measurement": "T/C", "setting": "[7]", "value": "101 % of control"}, {"measurement": "T/C", "setting": "[8]", "value": "92 % of control"}]}]}
